The values that follow come from patent US20250179103A1, “6-OXODECAHYDROPYRROLO[1,2-A][1,5]DIAZOCINE AND 6-OXODECAHYDRO-4H-PYRROLO[2,1-D][1,5]THIAZOCINE DERIVATIVES AS STAT3 AND STAT6 MODULATORS FOR THE TREATMENT OF CANCER AND INFLAMMATORY CONDITIONS” (Recludix Pharma, Inc., priority 2022, published 2025).

A value given as a limit tells only on which side of the number the result lay.

Test [1] deals with T1, Recombinant STAT3 protein (STAT3(G127-I722)) (Homo sapiens, UniProt P40763).
T1 construct: Recombinant STAT3 protein (STAT3(G127-I722))
T1 sequence (P40763 127-722): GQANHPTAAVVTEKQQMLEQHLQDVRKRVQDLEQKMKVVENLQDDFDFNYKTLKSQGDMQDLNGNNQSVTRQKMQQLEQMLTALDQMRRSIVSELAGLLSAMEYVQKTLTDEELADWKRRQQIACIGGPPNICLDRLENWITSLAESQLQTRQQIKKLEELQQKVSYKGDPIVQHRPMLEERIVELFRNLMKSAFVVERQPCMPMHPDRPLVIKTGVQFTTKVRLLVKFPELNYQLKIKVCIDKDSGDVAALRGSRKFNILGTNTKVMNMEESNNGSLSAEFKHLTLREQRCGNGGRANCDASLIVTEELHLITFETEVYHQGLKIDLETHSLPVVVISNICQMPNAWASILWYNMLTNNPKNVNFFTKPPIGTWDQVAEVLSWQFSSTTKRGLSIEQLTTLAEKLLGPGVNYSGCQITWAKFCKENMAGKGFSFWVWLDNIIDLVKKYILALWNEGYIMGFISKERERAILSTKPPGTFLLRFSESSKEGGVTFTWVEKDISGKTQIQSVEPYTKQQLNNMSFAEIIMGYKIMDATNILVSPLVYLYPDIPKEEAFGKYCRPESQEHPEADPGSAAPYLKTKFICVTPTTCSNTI
Briefly: STAT3 Fluorescence Polarization (FP) Assay. The format is binding. Particulars: STAT3(G127-I722) 25 nM, probe 5-FAM-GpYLPQTV-NH2 2 nM, 45-minute incubation. An outline of the steps: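 Fluorescence polarization after a 45-min room-temperature incubation measured compound displacement of a 2 nM fluorescein-labelled phosphotyrosine peptide (5-FAM-GpYLPQTV-NH2) from 25 nM recombinant STAT3(G127-I722). Buffer was 10 mM HEPES pH 7.4 with 1% DMSO final. IC50s were fitted by nonlinear regression of mP against log concentration.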

The target in test [2] is T2, Recombinant STAT6 protein (STAT6(W123-T658)) (Homo sapiens, UniProt P42226).
T2 construct: Recombinant STAT6 protein (STAT6(W123-T658))
T2 sequence (P42226 123-658): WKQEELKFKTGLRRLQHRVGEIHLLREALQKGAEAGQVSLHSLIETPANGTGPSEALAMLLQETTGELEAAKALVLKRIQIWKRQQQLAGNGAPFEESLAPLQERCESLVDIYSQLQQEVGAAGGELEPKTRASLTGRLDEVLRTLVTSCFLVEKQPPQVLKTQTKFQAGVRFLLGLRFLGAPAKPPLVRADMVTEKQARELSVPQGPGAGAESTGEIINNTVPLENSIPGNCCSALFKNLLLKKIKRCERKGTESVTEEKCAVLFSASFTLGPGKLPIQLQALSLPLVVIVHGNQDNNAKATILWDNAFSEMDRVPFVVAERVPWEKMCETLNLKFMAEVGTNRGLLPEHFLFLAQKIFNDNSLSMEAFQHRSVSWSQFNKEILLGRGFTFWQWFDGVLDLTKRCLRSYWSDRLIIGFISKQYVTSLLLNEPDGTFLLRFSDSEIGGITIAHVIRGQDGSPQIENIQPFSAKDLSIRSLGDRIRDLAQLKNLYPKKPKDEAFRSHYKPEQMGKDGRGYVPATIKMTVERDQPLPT
As to the kind of experiment: STAT6 Fluorescence Polarization (FP) Assay. The test is classed as binding. To be noted: STAT6(W123-T658) 250 nM, probe 5-FAM-ApYKPFQDLI-NH2 2 nM, 45-minute incubation. The gist of the method: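 Displacement of a fluorescent phosphotyrosine peptide (5-FAM-ApYKPFQDLI-NH2, 2 nM) from STAT6(W123-T658) (250 nM), 1% DMSO, pH 7.4 HEPES buffer. After 45 min at room temperature, polarization (mP) was plotted versus log compound concentration and fitted by nonlinear regression to give IC50.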
For orientation: Polarisation of emitted light reports the rotation of a fluorescent probe.

Broadly, the IC50 is the midpoint of a concentration-inhibition curve. As to `C[C@@H](C(=O)N1CC[C@H]2CC[C@@H](C(=O)N(C)c3ccccc3)N2C(=O)[C@@H](NC(=O)c2cc3cc(C(F)(F)P(=O)(O)O)ccc3[nH]2)C1)c1ccccc1` [Compound 217, (difluoro(2-(((5S,8S,10aR)-8-(methyl(phenyl)carbamoyl)-6-oxo-3-((R)-2-phenylpropanoyl)decahydropyrrolo[1,2 a][1,5]diazocin-5-yl)carbamoyl)-1H-indol-5-yl)methyl)phosphonic acid], the IC50 in test [1] is greater than 10 µM; in test [2], 0.3 to 3 µM.
On the same counts, the results for `CN(C(=O)[C@@H]1CC[C@@H]2CCN(CC(F)F)C[C@H](NC(=O)c3cc4cc(C(F)(F)P(=O)(O)O)ccc4[nH]3)C(=O)N21)c1ccccc1` [Compound 218, ((2-(((5S,8S,10aR)-3-(2,2-difluoroethyl)-8-(methyl(phenyl)carbamoyl)-6-oxodecahydropyrrolo[1,2-a][1,5]diazocin-5-yl)carbamoyl)-1H-indol-5-yl)difluoromethyl)phosphonic acid] are 1 to 10 µM and 0.3 to 3 µM.
`CN(C(=O)[C@@H]1CC[C@@H]2CCN(CC(F)(F)F)C[C@H](NC(=O)c3cc4cc(C(F)(F)P(=O)(O)O)ccc4[nH]3)C(=O)N21)c1ccccc1` [Compound 219, (difluoro(2-(((5S,8S,10aR)-8-(methyl(phenyl)carbamoyl)-6-oxo-3-(2,2,2-trifluoroethyl)decahydropyrrolo[1,2-a][1,5]diazocin-5-yl)carbamoyl)-1H-indol-5-yl)methyl)phosphonic acid]: the half-maximal inhibitory concentration (IC50) in test [1] lay in the range of 1 to 10 µM; in test [2], 0.3 to 3 µM.
The like results for `CN(C(=O)[C@@H]1CC[C@@H]2CCN(C(=O)c3ccccc3)C[C@H](NC(=O)c3cc4cc(C(F)(F)P(=O)(O)O)ccc4[nH]3)C(=O)N21)c1ccccc1` [Compound 220, ((2-(((5S,8S,10aR)-3-benzoyl-8-(methyl(phenyl)carbamoyl)-6-oxodecahydropyrrolo[1,2-a][1,5]diazocin-5-yl)carbamoyl)-1H-indol-5-yl)difluoromethyl)phosphonic acid] were, in that order, greater than 10 µM and 0.3 to 3 µM.
Consider `CC(C)C(=O)N1CC[C@H]2CC[C@@H](C(=O)N(C)c3ccccc3)N2C(=O)[C@@H](NC(=O)c2cc3cc(C(F)(F)P(=O)(O)O)ccc3[nH]2)C1` [Compound 221, (difluoro(2-(((5S,8S,10aR)-3-isobutyryl-8-(methyl(phenyl)carbamoyl)-6-oxodecahydropyrrolo[1,2-a][1,5]diazocin-5-yl)carbamoyl)-1H-indol-5-yl)methyl)phosphonic acid], for which the values for the IC50 in test [1] and in test [2] were 1 to 10 µM and 0.3 to 3 µM, respectively.
On the same counts, the results for `CN(C)C(=O)[C@@H]1CC[C@@H]2CCN(c3ccccc3)C[C@H](NC(=O)c3cc4cc(C(F)(F)P(=O)(O)O)ccc4[nH]3)C(=O)N21` [Compound 223, ((2-(((5S,8S,10aR)-8-(dimethylcarbamoyl)-6-oxo-3-phenyldecahydropyrrolo[1,2-a][1,5]diazocin-5-yl)carbamoyl)-1H-indol-5-yl)difluoromethyl)phosphonic acid] are 1 to 10 µM and 0.3 to 3 µM.
The like results for `CC(C)CN1CC[C@H]2CC[C@@H](C(=O)N(C)C)N2C(=O)[C@@H](NC(=O)c2cc3cc(C(F)(F)P(=O)(O)O)ccc3[nH]2)C1` [Compound 224, ((2-(((5S,8S,10aR)-8-(dimethylcarbamoyl)-3-isobutyl-6-oxodecahydropyrrolo[1,2-a][1,5]diazocin-5-yl)carbamoyl)-1H-indol-5-yl)difluoromethyl)phosphonic acid] were, in that order, 1 to 10 µM and 3 to 30 µM.
On the same counts, the results for `CN(C)C(=O)[C@@H]1CC[C@@H]2CCN(Cc3ccccc3)C[C@H](NC(=O)c3cc4cc(C(F)(F)P(=O)(O)O)ccc4[nH]3)C(=O)N21` [Compound 225, ((2-(((5S,8S,10aR)-3-benzyl-8-(dimethylcarbamoyl)-6-oxodecahydropyrrolo[1,2-a][1,5]diazocin-5-yl)carbamoyl)-1H-indol-5-yl)difluoromethyl)phosphonic acid] are 1 to 10 µM and 3 to 30 µM.
In the case of `CCN1CC[C@H](NC(=O)c2cc3cc(C(F)(F)P(=O)(O)O)ccc3s2)C(=O)N2[C@H](CC[C@H]2C(=O)N2CC(c3cccnc3)C2)C1` [Compound 226, ((2-(((5S,8S,10aR)-2-ethyl-6-oxo-8-(3-(pyridin-3-yl)azetidine-1-carbonyl)decahydropyrrolo[1,2-a][1,4]diazocin-5-yl)carbamoyl)benzo[b]thiophen-5-yl)difluoromethyl)phosphonic acid], the half-inhibitory concentration (IC50) in test [1] is no more than 0.1 µM; in test [2], 0.3 to 3 µM.
On the same counts, the results for `CNC(=O)C[C@@H](Cc1ccc(OC)cc1)NC(=O)[C@@H]1CC[C@@H]2CCN(C(=O)c3n[nH]c4ccc(C)cc34)C[C@H](NC(=O)c3ccc4ccc(C(F)(F)P(=O)(O)O)cc4c3)C(=O)N21` [Compound 229, (difluoro(7-(((5S,8S,10aR)-8-(((R)-1-(4-methoxyphenyl)-4-(methylamino)-4-oxobutan-2-yl)carbamoyl)-3-(5-methyl-1H-indazole-3-carbonyl)-6-oxodecahydropyrrolo[1,2-a][1,5]diazocin-5-yl)carbamoyl)naphthalen-2-yl)methyl)phosphonic acid] are 1 to 10 µM and no more than 0.3 µM.
Take `Cc1ccc2[nH]nc(C(=O)N3CC[C@H]4CC[C@@H](C(=O)N(C)C)N4C(=O)[C@@H](NC(=O)c4cc5cc(CP(=O)(O)O)ccc5s4)C3)c2c1` [Compound 230, ((2-(((5S,8S,10aR)-8-(dimethylcarbamoyl)-3-(5-methyl-1H-indazole-3-carbonyl)-6-oxodecahydropyrrolo[1,2-a][1,5]diazocin-5-yl)carbamoyl)benzo[b]thiophen-5-yl)methyl)phosphonic acid]: the half-maximal inhibitory concentration (IC50) in test [1] was greater than 10 µM; in test [2], 3 to 30 µM.
On the same counts, the results for `Cc1ccc2[nH]nc(C(=O)N3CC[C@H]4CC[C@@H](C(=O)N(C)C)N4C(=O)[C@@H](NC(=O)c4cc5cc(C(F)(F)P(=O)(O)O)ccc5s4)C3)c2c1` [Compound 231, ((2-(((5S,8S,10aR)-8-(dimethylcarbamoyl)-3-(5-methyl-1H-indazole-3-carbonyl)-6-oxodecahydropyrrolo[1,2-a][1,5]diazocin-5-yl)carbamoyl)benzo[b]thiophen-5-yl)difluoromethyl)phosphonic acid] are 1 to 10 µM and no more than 0.3 µM.
As to `O=C(N[C@H]1CCN(CC(F)F)C[C@H]2CC[C@@H](C(=O)N3CC(c4cc[nH]c(=O)c4)CC34CC4)N2C1=O)c1ccc2ccc(C(F)(F)P(=O)(O)O)cc2c1` (stereo partly drawn) [Compound 234, ((7-(((5S,8S,10aR)-2-(2,2-difluoroethyl)-6-oxo-8-(6-(2-oxo-1,2-dihydropyridin-4-yl)-4-azaspiro[2.4]heptane-4-carbonyl)decahydropyrrolo[1,2-a][1,4]diazocin-5-yl)carbamoyl)naphthalen-2-yl)difluoromethyl)phosphonic acid], the IC50 in test [1] is greater than 10 µM; in test [2], no more than 0.3 µM.
The like results for `O=C(N[C@H]1CN(Cc2ccn3ccnc3c2)CC[C@H]2CC[C@@H](C(=O)N3CC(c4cccnc4)C3)N2C1=O)c1cc2cc(CP(=O)(O)O)ccc2s1` [Compound 235, ((2-(((5S,8S,10aR)-3-(imidazo[1,2-a]pyridin-7-ylmethyl)-6-oxo-8-(3-(pyridin-3-yl)azetidine-1-carbonyl)decahydropyrrolo[1,2-a][1,5]diazocin-5-yl)carbamoyl)benzo[b]thiophen-5-yl)methyl)phosphonic acid] were, in that order, no more than 0.1 µM and greater than 30 µM.
Regarding `CNC(=O)[C@@H]1CC[C@@H]2CCN(C(=O)c3n[nH]c4ccc(C)cc34)C[C@H](NC(=O)c3ccc4ccc(C(F)(F)P(=O)(O)O)cc4c3)C(=O)N21` [Compound 237, (difluoro(7-(((5S,8S,10aR)-3-(5-methyl-1H-indazole-3-carbonyl)-8-(methylcarbamoyl)-6-oxodecahydropyrrolo[1,2-a][1,5]diazocin-5-yl)carbamoyl)naphthalen-2-yl)methyl)phosphonic acid], the half-maximal inhibitory concentration (IC50) in test [1] was 0.1 to 1 µM; in test [2], no more than 0.3 µM.
The like results for `CN(C(=O)[C@@H]1CC[C@@H]2CCN(CC(F)F)C[C@H](NC(=O)c3ccc4ccc(C(F)(F)P(=O)(O)O)cc4c3)C(=O)N21)C1CCN(S(C)(=O)=O)CC1` [Compound 244, ((7-(((5S,8S,10aR)-3-(2,2-difluoroethyl)-8-(methyl(1-(methylsulfonyl)piperidin-4-yl)carbamoyl)-6-oxodecahydropyrrolo[1,2-a][1,5]diazocin-5-yl)carbamoyl)naphthalen-2-yl)difluoromethyl)phosphonic acid] were, in that order, 1 to 10 µM and 0.3 to 3 µM.
